# Source: patent publication US20240124442A1, “TRICYCLIC-AMIDO-BICYCLIC PRMT5 INHIBITORS” (AMGEN INC., priority 2021, published 2024)
# Test system: HCT116 WT cells
# Assay: HCT116 WT (parent) cell line proliferation / cell viability (CellTiter-Glo, 6 days)
# Assay type: cell-based
# Conditions: Homo sapiens, HCT-116, 144 h, 6 days treatment
# Method in brief: (§1)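 WT vs MTAP-null HCT116, 6 d drug, CTG readout. 1:3 × 8–9 pts (top 1/10 μM) or 1:2 × 22 pts (top 10/50 μM). IC50 by 4PL or Hill −1 fit.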
row,SMILES,IC50 [nM]
1,"CN(C(=O)c1cc2c(cc1F)nc(N)c1cnn(C)c12)[C@@H]1COCc2cc(S(C)(=O)=O)ccc21 (single isomer, unassigned) [Example 600]",226
2,"C[C@H]1OC[C@@H](N(C)C(=O)c2ccc3nc(N)c4c(cnn4C)c3c2)c2ccc(C(F)(F)F)cc21 (single isomer, unassigned) [Example 601]",2100
3,"C[C@H]1OC[C@H](N(C)C(=O)c2ccc3nc(N)c4c(cnn4C)c3c2)c2ccc(C(F)(F)F)cc21 (single isomer, unassigned) [Example 602]",21300
4,"C[C@@H]1OC[C@@H](N(C)C(=O)c2ccc3nc(N)c4c(cnn4C)c3c2)c2ccc(C(F)(F)F)cc21 (single isomer, unassigned) [Example 603]",16000
5,"C[C@@H]1OC[C@H](N(C)C(=O)c2ccc3nc(N)c4c(cnn4C)c3c2)c2ccc(C(F)(F)F)cc21 (single isomer, unassigned) [Example 604]",19100
6,"CN(C(=O)c1cc2c(cc1F)nc(N)c1c2cnn1C)[C@@H]1COCc2c1ccc(F)c2F (single isomer, unassigned) [Example 605]",26400
7,"CN(C(=O)c1cc2c(cc1F)nc(N)c1c2cnn1C)[C@@H]1COCc2cc(C(F)(F)F)cnc21 (single isomer, unassigned) [Example 606]",13500
8,"Cn1ncc2c3cc(C(=O)N(CC4CC4)[C@@H]4COCc5nc(C(F)(F)F)ccc54)c(F)cc3nc(N)c21 (single isomer, unassigned) [Example 607]",825
9,"CN(C(=O)c1ccc2nc(N)c3c(c2c1)COC3)[C@@H]1COCc2cc(Br)ccc21 (single isomer, unassigned) [Example 608]",1040
10,"CN(C(=O)c1ccc2nc(N)c3c(c2c1)COC3)[C@H]1COCc2cc(Br)ccc21 (single isomer, unassigned) [Example 609]",7800
11,"CN(C(=O)c1ccc2nc(N)c3c(c2c1)COC3)[C@@H]1COc2cc(C3CC3)ccc21 (single isomer, unassigned) [Example 610]",5510
12,"CN(C(=O)c1ccc2nc(N)c3c(c2c1)COC3)[C@H]1COc2cc(C3CC3)ccc21 (single isomer, unassigned) [Example 611]",10500
13,"CN(C(=O)c1ccc2nc(N)c3c(c2c1)COC3)[C@@H]1COc2cc(C3=CCOCC3)ccc21 (single isomer, unassigned) [Example 612]",2640
14,"CN(C(=O)c1ccc2nc(N)c3c(c2c1)COC3)[C@H]1COc2cc(C3=CCOCC3)ccc21 (single isomer, unassigned) [Example 613]",2630
15,"CN(C(=O)c1ccc2nc(N)c3cnn(C)c3c2c1)[C@@H]1CCc2cc(-c3cnn(C)c3)ccc21 (single isomer, unassigned) [Example 623]",3490
16,"CN(C(=O)c1ccc2nc(N)c3cnn(C)c3c2c1)[C@H]1CCc2nc(-c3cnn(C)c3)ccc21 (single isomer, unassigned) [Example 624]",6510
17,"CN(C(=O)c1ccc2nc(N)c3cnn(C)c3c2c1)[C@@H]1COCc2cc(-c3cnn(C(F)(F)F)c3)ccc21 (single isomer, unassigned) [Example 663]",922
18,"CN(C(=O)c1ccc2nc(N)c3cnn(C)c3c2c1)[C@H]1COCc2cc(-c3cnn(C(F)(F)F)c3)ccc21 (single isomer, unassigned) [Example 664]",1770
19,"CN(C(=O)c1cc2c3c(c(N)nc2cc1F)COC3)[C@H]1COCc2cc(-c3ccc(C(F)(F)F)cc3)ccc21 (single isomer, unassigned) [Example 665]",2510
20,"CN(C(=O)c1cc2c3c(c(N)nc2cc1F)COC3)[C@@H]1COCc2cc(-c3ccc(C(F)(F)F)cc3)ccc21 (single isomer, unassigned) [Example 666]",1100
21,"CN(C(=O)c1ccc2nc(N)c3cnn(C)c3c2c1)[C@@H]1COCc2cc(-c3ccc(C(F)(F)F)cc3)ccc21 (single isomer, unassigned) [Example 669]",1000
22,"CN(C(=O)c1ccc2nc(N)c3cnn(C)c3c2c1)[C@H]1COCc2cc(-c3ccc(C(F)(F)F)cc3)ccc21 (single isomer, unassigned) [Example 670]",1120
23,"Cc1ccc2c(c1)CC[C@H]2N(C)C(=O)c1ccc2nc(N)c3cnn(C)c3c2c1 (single isomer, unassigned) [Example 680]",7960

# Test system: HCT116 MTAP null cells
# Assay: HCT116 MTAP null cell line proliferation / cell viability (CellTiter-Glo, 6 days)
# Assay type: cell-based
# Conditions: 144 h; HCT116 MTAP null cells, 6 days treatment, CellTiter-Glo cell viability; read-out: HCT-116 MTAP null IC50
# Method in brief: as §1
row,SMILES,IC50 [nM]
1,"CN(C(=O)c1cc2c(cc1F)nc(N)c1cnn(C)c12)[C@@H]1COCc2cc(S(C)(=O)=O)ccc21 (single isomer, unassigned) [Example 600]",10
2,"C[C@H]1OC[C@@H](N(C)C(=O)c2ccc3nc(N)c4c(cnn4C)c3c2)c2ccc(C(F)(F)F)cc21 (single isomer, unassigned) [Example 601]",21
3,"C[C@H]1OC[C@H](N(C)C(=O)c2ccc3nc(N)c4c(cnn4C)c3c2)c2ccc(C(F)(F)F)cc21 (single isomer, unassigned) [Example 602]",4260
4,"C[C@@H]1OC[C@@H](N(C)C(=O)c2ccc3nc(N)c4c(cnn4C)c3c2)c2ccc(C(F)(F)F)cc21 (single isomer, unassigned) [Example 603]",327
5,"C[C@@H]1OC[C@H](N(C)C(=O)c2ccc3nc(N)c4c(cnn4C)c3c2)c2ccc(C(F)(F)F)cc21 (single isomer, unassigned) [Example 604]",2300
6,"CN(C(=O)c1cc2c(cc1F)nc(N)c1c2cnn1C)[C@@H]1COCc2c1ccc(F)c2F (single isomer, unassigned) [Example 605]",285
7,"CN(C(=O)c1cc2c(cc1F)nc(N)c1c2cnn1C)[C@@H]1COCc2cc(C(F)(F)F)cnc21 (single isomer, unassigned) [Example 606]",724
8,"Cn1ncc2c3cc(C(=O)N(CC4CC4)[C@@H]4COCc5nc(C(F)(F)F)ccc54)c(F)cc3nc(N)c21 (single isomer, unassigned) [Example 607]",21
9,"CN(C(=O)c1ccc2nc(N)c3c(c2c1)COC3)[C@@H]1COCc2cc(Br)ccc21 (single isomer, unassigned) [Example 608]",26
10,"CN(C(=O)c1ccc2nc(N)c3c(c2c1)COC3)[C@H]1COCc2cc(Br)ccc21 (single isomer, unassigned) [Example 609]",598
11,"CN(C(=O)c1ccc2nc(N)c3c(c2c1)COC3)[C@@H]1COc2cc(C3CC3)ccc21 (single isomer, unassigned) [Example 610]",108
12,"CN(C(=O)c1ccc2nc(N)c3c(c2c1)COC3)[C@H]1COc2cc(C3CC3)ccc21 (single isomer, unassigned) [Example 611]",1690
13,"CN(C(=O)c1ccc2nc(N)c3c(c2c1)COC3)[C@@H]1COc2cc(C3=CCOCC3)ccc21 (single isomer, unassigned) [Example 612]",33
14,"CN(C(=O)c1ccc2nc(N)c3c(c2c1)COC3)[C@H]1COc2cc(C3=CCOCC3)ccc21 (single isomer, unassigned) [Example 613]",860
15,"CN(C(=O)c1ccc2nc(N)c3cnn(C)c3c2c1)[C@@H]1CCc2cc(-c3cnn(C)c3)ccc21 (single isomer, unassigned) [Example 623]",64
16,"CN(C(=O)c1ccc2nc(N)c3cnn(C)c3c2c1)[C@H]1CCc2nc(-c3cnn(C)c3)ccc21 (single isomer, unassigned) [Example 624]",75
17,"CN(C(=O)c1ccc2nc(N)c3cnn(C)c3c2c1)[C@@H]1COCc2cc(-c3cnn(C(F)(F)F)c3)ccc21 (single isomer, unassigned) [Example 663]",10
18,"CN(C(=O)c1ccc2nc(N)c3cnn(C)c3c2c1)[C@H]1COCc2cc(-c3cnn(C(F)(F)F)c3)ccc21 (single isomer, unassigned) [Example 664]",319
19,"CN(C(=O)c1cc2c3c(c(N)nc2cc1F)COC3)[C@H]1COCc2cc(-c3ccc(C(F)(F)F)cc3)ccc21 (single isomer, unassigned) [Example 665]",875
20,"CN(C(=O)c1cc2c3c(c(N)nc2cc1F)COC3)[C@@H]1COCc2cc(-c3ccc(C(F)(F)F)cc3)ccc21 (single isomer, unassigned) [Example 666]",22
21,"CN(C(=O)c1ccc2nc(N)c3cnn(C)c3c2c1)[C@@H]1COCc2cc(-c3ccc(C(F)(F)F)cc3)ccc21 (single isomer, unassigned) [Example 669]",16
22,"CN(C(=O)c1ccc2nc(N)c3cnn(C)c3c2c1)[C@H]1COCc2cc(-c3ccc(C(F)(F)F)cc3)ccc21 (single isomer, unassigned) [Example 670]",536
23,"Cc1ccc2c(c1)CC[C@H]2N(C)C(=O)c1ccc2nc(N)c3cnn(C)c3c2c1 (single isomer, unassigned) [Example 680]",168
